Data on 24 compounds can be found in PubChem BioAssay (NCI).

Molecules are shown by their SMILES. Values joined by “and” are separate entries in the source; they are usually repeats but may differ in a detail not shown here. Equal values may be shown once.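 Compound exposure: 48 hours, 5 concentrations, 96-well plates. The concentration for 50% growth inhibition is given as GI50. The concentration for full growth arrest is given as TGI.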 Where a SMILES comes first, the peptide text is derived from it. [ ]: non-standard residue; d: D form. The star is where a group is joined. NMeAc5c = CNC1(C(=O)O)CCCC1; Boc = CC(C)(C)OC(=O)*; OBn = c1ccc(CO*)cc1

In one assay the test system is OVCAR-3 ovarian. Nature of the assay: NCI-60 cell line screen, 48 h.
Turning to `COc1ccc(-c2cc(O)c3nc4ccccc4n3c2)cc1`, the TGI was over 100 µM.

On to `CCOC(=O)c1csc(NC(=O)CN2CCOCC2)n1`, for which the TGI was over 100 µM.

With `Nn1c(-c2ccccc2)nn(C(=O)c2ccccc2)c1=O`, the TGI is over 100 µM.

Take `O=C(NC(=O)c1ccccc1[N+](=O)[O-])Nc1ccc(Oc2ncc(Br)cn2)c(Cl)c1`: the GI50 is under 0.0158 µM and the TGI amounted to 0.0767 µM.

Consider `O=c1ccc(-c2ccccc2)n[nH]1`, for which the TGI was over 100 µM.

As for `CN1CCc2cc(N)cc3c2C1Cc1ccc(O)c(O)c1-3` (stereo not drawn), the TGI came out at 72.8 µM.

As to `C1CN(c2nc3c(nnc4nc(N5CCOCC5)sc43)s2)CCO1`, the TGI was over 100 µM.

For the compound `COC(=O)c1c(C)cccc1C1CN=NC12Cc1ccc(C)cc1C2=O` (stereo not drawn), the TGI was over 100 µM.

`CCC(C(=O)O)c1ccc(OC)cc1` (stereo not drawn) came in with a TGI of over 100 µM.

The compound `ClCCN1CCC2(CC1)SSC1(CCN(CCCl)CC1)S2` gave a TGI of 63.3 µM.

In turn, `Nc1nc(SCCc2ccccc2)c2[nH]cnc2n1` yielded a TGI of over 100 µM.

In turn, `NC(=O)NCCCC(NC(=O)OCCCCn1ccc(=O)[nH]c1=O)C(=O)O` (stereo not drawn) returned a TGI of over 100 µM.

Take `c1ccc(-c2nc(-c3ccccc3SSc3ccccc3-c3nc(-c4ccccc4)nn3-c3ccccc3)n(-c3ccccc3)n2)cc1`: the TGI was over 100 µM.

Regarding `CC(C)CCS(=O)(=O)OCCCCOS(=O)(=O)CCC(C)C`, the TGI is 29.9 µM.

As for `Cc1ccc(-c2n[nH]c(=O)n2N2C(=O)c3ccccc3C2=O)cc1`, the TGI was over 100 µM.

On to `CN(C(=O)C(Cc1ccccc1)NC(=O)OC(C)(C)C)C1(C(=O)NC(Cc2ccccc2)C(=O)OCc2ccccc2)CCCC1` (stereo not drawn) (Boc-Phe-[NMeAc5c]-Phe-OBn; configuration not given here), for which the TGI is over 100 µM.

Compound `CCCCC#C[I+]c1ccccc1` displayed a TGI of 30.7 µM.

Consider `COc1cc2c(c(OC)c1OC)C(=O)[C@@H]1[C@H]2N1C(N)=O`, for which the TGI was over 100 µM.

Consider `N#Cc1c(N2CCCC2)ncn(-c2ccccc2)c1=O`, for which the TGI was over 100 µM.

Regarding `COc1ccc2c(c1)/C(=C/CCN(C)C)c1ccccc1S2`, the TGI is over 100 µM.

For the compound `N#CC1(C#N)N[C@@H](c2ccsc2)[C@H]2C(=O)N(c3ccccc3)C(=O)[C@H]21`, the TGI is over 100 µM.

In a further assay the test system is SK-MEL-2 melanoma. Nature of the assay: NCI-60 cell line screen, 48 h.
`CCOC(=O)c1csc(NC(=O)CN2CCOCC2)n1` returned a TGI of over 100 µM.

The compound `CC(C)(C)OC(=O)N[C@H]1CCN(C2CCCCC2)C1=O` showed a TGI of over 100 µM.

In the case of `O=C(NC(=O)c1ccccc1[N+](=O)[O-])Nc1ccc(Oc2ncc(Br)cn2)c(Cl)c1`, the GI50 is 0.321 µM.

The compound `O=c1ccc(-c2ccccc2)n[nH]1` returned a TGI of over 100 µM.

`CN1CCc2cc(N)cc3c2C1Cc1ccc(O)c(O)c1-3` (stereo not drawn) gave a TGI of over 100 µM.

`C1CN(c2nc3c(nnc4nc(N5CCOCC5)sc43)s2)CCO1` registered a TGI of over 100 µM.

Compound `c1ccc(N=c2sc3ccccc3nc2Nc2ccccc2)cc1` had a TGI of over 100 µM.

On to `CCC(C(=O)O)c1ccc(OC)cc1` (stereo not drawn), for which the TGI was over 100 µM.

For the compound `ClCCN1CCC2(CC1)SSC1(CCN(CCCl)CC1)S2`, the TGI was over 100 µM.

In turn, `Nc1nc(SCCc2ccccc2)c2[nH]cnc2n1` returned a TGI of 82.9 µM.

Turning to `NC(=O)NCCCC(NC(=O)OCCCCn1ccc(=O)[nH]c1=O)C(=O)O` (stereo not drawn), the TGI is over 100 µM.

As for `Cc1ccc(-c2n[nH]c(=O)n2N2C(=O)c3ccccc3C2=O)cc1`, the TGI is over 100 µM.

The compound `CN(C(=O)C(Cc1ccccc1)NC(=O)OC(C)(C)C)C1(C(=O)NC(Cc2ccccc2)C(=O)OCc2ccccc2)CCCC1` (stereo not drawn) (Boc-Phe-[NMeAc5c]-Phe-OBn; configuration not given here) yielded a TGI of over 100 µM.

`CCCCC#C[I+]c1ccccc1` came in with a TGI of 34.1 µM.

`N#Cc1c(N2CCCC2)ncn(-c2ccccc2)c1=O` displayed a TGI of over 100 µM.

As to `N#CC1(C#N)N[C@@H](c2ccsc2)[C@H]2C(=O)N(c3ccccc3)C(=O)[C@H]21`, the TGI is over 100 µM.

As for `Cc1c(O)c(O)cc[n+]1C1OC(CO)C(O)C1O` (stereo not drawn), the TGI is over 100 µM.

The next assay concerns NCI-H522 lung. Nature of the assay: NCI-60 cell line screen, 48 h.
Turning to `COc1ccc(-c2cc(O)c3nc4ccccc4n3c2)cc1`, the TGI was over 100 µM.

Take `Nn1c(-c2ccccc2)nn(C(=O)c2ccccc2)c1=O`: the TGI was over 100 µM.

Take `O=C(NC(=O)c1ccccc1[N+](=O)[O-])Nc1ccc(Oc2ncc(Br)cn2)c(Cl)c1`: the TGI is 0.0378 µM and 0.198 µM.

With `O=c1ccc(-c2ccccc2)n[nH]1`, the TGI was over 100 µM.

For `CN1CCc2cc(N)cc3c2C1Cc1ccc(O)c(O)c1-3` (stereo not drawn), the TGI is over 100 µM.

`C1CN(c2nc3c(nnc4nc(N5CCOCC5)sc43)s2)CCO1`: the TGI is over 100 µM.

Turning to `COC(=O)c1c(C)cccc1C1CN=NC12Cc1ccc(C)cc1C2=O` (stereo not drawn), the TGI came out at 91.9 µM.

Compound `c1ccc(N=c2sc3ccccc3nc2Nc2ccccc2)cc1` returned a TGI of over 100 µM.

`CCC(C(=O)O)c1ccc(OC)cc1` (stereo not drawn): the TGI is over 100 µM.

`Nc1nc(SCCc2ccccc2)c2[nH]cnc2n1` displayed a TGI of over 100 µM.

In the case of `CC(C)CCS(=O)(=O)OCCCCOS(=O)(=O)CCC(C)C`, the TGI is over 100 µM.

For the compound `Cc1ccc(-c2n[nH]c(=O)n2N2C(=O)c3ccccc3C2=O)cc1`, the TGI is over 100 µM.

In turn, `CCCCC#C[I+]c1ccccc1` showed a TGI of 15.5 µM.

In turn, `COc1cc2c(c(OC)c1OC)C(=O)[C@@H]1[C@H]2N1C(N)=O` registered a TGI of over 100 µM.

`N#Cc1c(N2CCCC2)ncn(-c2ccccc2)c1=O` had a TGI of over 100 µM.

Turning to `N#CC1(C#N)N[C@@H](c2ccsc2)[C@H]2C(=O)N(c3ccccc3)C(=O)[C@H]21`, the TGI is over 100 µM.

The compound `Cc1c(O)c(O)cc[n+]1C1OC(CO)C(O)C1O` (stereo not drawn) had a TGI of over 100 µM.

The next assay relates to MCF7 breast. Briefly: NCI-60 cell line screen, 48 h.
`COc1ccc(-c2cc(O)c3nc4ccccc4n3c2)cc1`: the TGI was over 100 µM.

With `CCOC(=O)c1csc(NC(=O)CN2CCOCC2)n1`, the TGI was over 100 µM.

Compound `CC(C)(C)OC(=O)N[C@H]1CCN(C2CCCCC2)C1=O` gave a TGI of over 100 µM.

For `Nn1c(-c2ccccc2)nn(C(=O)c2ccccc2)c1=O`, the TGI is over 100 µM.

On to `C1CN(c2nc3c(nnc4nc(N5CCOCC5)sc43)s2)CCO1`, for which the TGI is over 100 µM.

Consider `COC(=O)c1c(C)cccc1C1CN=NC12Cc1ccc(C)cc1C2=O` (stereo not drawn), for which the TGI was over 100 µM.

The compound `ClCCN1CCC2(CC1)SSC1(CCN(CCCl)CC1)S2` showed a TGI of 39.6 µM.

For the compound `NC(=O)NCCCC(NC(=O)OCCCCn1ccc(=O)[nH]c1=O)C(=O)O` (stereo not drawn), the TGI is over 100 µM.

On to `c1ccc(-c2nc(-c3ccccc3SSc3ccccc3-c3nc(-c4ccccc4)nn3-c3ccccc3)n(-c3ccccc3)n2)cc1`, for which the TGI is over 100 µM.

Turning to `Cc1ccc(-c2n[nH]c(=O)n2N2C(=O)c3ccccc3C2=O)cc1`, the TGI was over 100 µM.

For `CN(C(=O)C(Cc1ccccc1)NC(=O)OC(C)(C)C)C1(C(=O)NC(Cc2ccccc2)C(=O)OCc2ccccc2)CCCC1` (stereo not drawn) (Boc-Phe-[NMeAc5c]-Phe-OBn; configuration not given here), the TGI is over 100 µM.

`COc1cc2c(c(OC)c1OC)C(=O)[C@@H]1[C@H]2N1C(N)=O` returned a TGI of over 100 µM.

The test system of another assay is HCT-15 colon. Nature of the assay: NCI-60 cell line screen, 48 h.
`COc1ccc(-c2cc(O)c3nc4ccccc4n3c2)cc1` registered a TGI of over 100 µM.

`CCOC(=O)c1csc(NC(=O)CN2CCOCC2)n1` had a TGI of over 100 µM.

Compound `CC(C)(C)OC(=O)N[C@H]1CCN(C2CCCCC2)C1=O` had a TGI of over 100 µM.

The compound `Nn1c(-c2ccccc2)nn(C(=O)c2ccccc2)c1=O` yielded a TGI of over 100 µM.

Consider `O=C(NC(=O)c1ccccc1[N+](=O)[O-])Nc1ccc(Oc2ncc(Br)cn2)c(Cl)c1`, for which the GI50 was under 0.0258 µM and the TGI was over 42.7 µM.

Compound `O=c1ccc(-c2ccccc2)n[nH]1` registered a TGI of over 100 µM.

The compound `CN1CCc2cc(N)cc3c2C1Cc1ccc(O)c(O)c1-3` (stereo not drawn) had a TGI of over 100 µM.

On to `C1CN(c2nc3c(nnc4nc(N5CCOCC5)sc43)s2)CCO1`, for which the TGI is over 100 µM.

With `COC(=O)c1c(C)cccc1C1CN=NC12Cc1ccc(C)cc1C2=O` (stereo not drawn), the TGI was over 100 µM.

Compound `c1ccc(N=c2sc3ccccc3nc2Nc2ccccc2)cc1` displayed a TGI of over 100 µM.

The compound `ClCCN1CCC2(CC1)SSC1(CCN(CCCl)CC1)S2` returned a TGI of over 100 µM.

Consider `Nc1nc(SCCc2ccccc2)c2[nH]cnc2n1`, for which the TGI is over 100 µM.

`NC(=O)NCCCC(NC(=O)OCCCCn1ccc(=O)[nH]c1=O)C(=O)O` (stereo not drawn): the TGI was over 100 µM.

Compound `c1ccc(-c2nc(-c3ccccc3SSc3ccccc3-c3nc(-c4ccccc4)nn3-c3ccccc3)n(-c3ccccc3)n2)cc1` showed a TGI of over 100 µM.

`CC(C)CCS(=O)(=O)OCCCCOS(=O)(=O)CCC(C)C` gave a TGI of over 100 µM.

`Cc1ccc(-c2n[nH]c(=O)n2N2C(=O)c3ccccc3C2=O)cc1` showed a TGI of over 100 µM.

In the case of `CN(C(=O)C(Cc1ccccc1)NC(=O)OC(C)(C)C)C1(C(=O)NC(Cc2ccccc2)C(=O)OCc2ccccc2)CCCC1` (stereo not drawn) (Boc-Phe-[NMeAc5c]-Phe-OBn; configuration not given here), the TGI is over 100 µM.

With `CCCCC#C[I+]c1ccccc1`, the TGI worked out at 30 µM.

`COc1cc2c(c(OC)c1OC)C(=O)[C@@H]1[C@H]2N1C(N)=O` displayed a TGI of over 100 µM.

`N#Cc1c(N2CCCC2)ncn(-c2ccccc2)c1=O` showed a TGI of over 100 µM.

The compound `COc1ccc2c(c1)/C(=C/CCN(C)C)c1ccccc1S2` displayed a TGI of over 100 µM.

With `Cc1c(O)c(O)cc[n+]1C1OC(CO)C(O)C1O` (stereo not drawn), the TGI is over 100 µM.

A further assay concerns SF-295 CNS. Nature of the assay: NCI-60 cell line screen, 48 h.
`COc1ccc(-c2cc(O)c3nc4ccccc4n3c2)cc1` had a TGI of over 100 µM.

Take `CCOC(=O)c1csc(NC(=O)CN2CCOCC2)n1`: the TGI is over 100 µM.

The compound `Nn1c(-c2ccccc2)nn(C(=O)c2ccccc2)c1=O` gave a TGI of over 100 µM.

With `O=C(NC(=O)c1ccccc1[N+](=O)[O-])Nc1ccc(Oc2ncc(Br)cn2)c(Cl)c1`, the GI50 is under 0.0184 µM and the TGI turned out to be 0.0465 µM.

`O=c1ccc(-c2ccccc2)n[nH]1` had a TGI of over 100 µM.

In the case of `CN1CCc2cc(N)cc3c2C1Cc1ccc(O)c(O)c1-3` (stereo not drawn), the TGI is over 100 µM.
